System: B16 murine cells
Assay: Melanin content of B16 murine cells by spectrophotometry (pigmenting activity in vitro)
Format: cell-based
Conditions: B16 cells treated 72 h
Description: Protocol: The melanin content of B16 murine cells is determined by spectrophotometry.
The cells are seeded in 10-cm Petri dishes at a density of 1×10^6 per dish and are treated every 24 hours for 72 hours with the specified dose of purified lichenic substance, dissolved in DMSO. […] After treatment, the cells are washed twice with PBS and recovered by treatment with trypsin. The number of cells recovered is estimated by counting using a haemocytometer. One fraction is used for determining the melanin content and a second fraction for the concentration of protein. The melanin content is determined from the absorbance at 405 nm (VersaMax Microplate Reader, Molecular Devices, USA) of the cellular solution after solubilization of the melanin with 1M sodium hydroxide, for 15 min at 80° C. The protein concentration is determined according to the protocol of the “DC Protein Assay” kit developed by Bio-Rad Laboratories, USA. For each sample treated, the melanin content is referred to the amount of protein and expressed as percentage relative to the control situation (DMSO solution only). Each measurement is performed in triplicate and each experiment is carried out independently for a minimum of 3 times.
The molecules tested, with their concentrations expressed in μM, are shown on the abscissa.
On the ordinate, the melanin content is expressed as percentage relative to the control (DMSO alone=concentration of 0.1%).

| SMILES | pro-pigmenting effect (% of pigmentation) (5 μM, relative to DMSO control) [%] | pigmentation relative to the control (melanin content) (0.5 μM, control DMSO 0.1%) [%] | depigmentation (0.5 μM, relative to DMSO control) [%] |
| --- | --- | --- | --- |
| CCCCCCCCCCCCC[C@H]1OC(=O)C(C)=C1C(=O)O [lichesterinic acid, (+)-Lichesterinic acid] | 26 | – | – |
| C=C1C(=O)O[C@H](CCCCCCCCCCCCC)[C@H]1C(=O)O [protolichesterinic acid, (+)-Protolichesterinic acid] | – | 72 | 28 |

Reference: US8816101B2, “Paraconic acids as pigmentation activators” (Centre National de la Recherche Scientifique—CNRS, priority 2010, dated 2014)
